Assay results as given in article PMC3986099, “Development of a Radioiodinated Triazolopyrimidine Probe for Nuclear Medical Imaging of Fatty Acid Binding Protein 4” (PLoS ONE, 2014).

Assays:
C6 tumors = experiment: Biodistribution in C6 bearing mice; type: in vivo, Balb/c nu-nu mice; conditions: for Blood / Heart / Intestine / Kidney / Liver / Lung / Muscle / Pancreas / Spleen / Stomach / Tumor / T/B ratio / T/M ratio: C6 bearing mice, i.v.; for T/B ratio: tumor to blood; for T/M ratio: tumor to muscle
Protocol: C6 cells were suspended in PBS(-) followed by subcutaneous inoculation into the right hind legs of Balb/c nu-nu mice (5×10^6 cells/100 µL).
A saline solution (5% ethanol, v/v) of [^125I]TAP1 (0.06 MBq) was injected intravenously into the tail vein of C6 cell implantation model Balb/c nu-nu mice (males, 8 weeks old). The mice were sacrificed at various post-injection time points and organs, including tumor tissues, were removed. The weight and radioactivity of the organs were measured as mentioned above. Several model mice were sacrificed 3 hr after the injection by transcardial perfusion of saline (20 ml) under anesthesia with chloral hydrate. The weight and radioactivity of the removed organs, including tumor tissues, were measured as mentioned above.

[1] = Biodistribution in normal mice; type: in vivo, ddY mice; conditions: for Blood / Heart / Intestine / Kidney / Liver / Lung / Muscle / Pancreas / Spleen / Stomach / Thyroid gland: normal mice, i.v.
Protocol: A saline solution (5% ethanol, v/v) of [^125I]TAP1 (0.035 MBq) was injected intravenously into the tail vein of ddY mice (males, 5 weeks old). The mice were sacrificed at various post-injection time points, and the organs of interest were removed. The organ weights were determined, and the radioactivity in the organs was measured with a well-type γ-counter.

For O=c1cc(COc2cccc([125I])c2)[nH]c2nc(-c3ccccc3)nn12 [[^125I]TAP1], the “radioactivity accumulation in tumors (peak)” value (C6 tumors; 15 min after injection) was 2.26±0.45 %ID/g, the “radioactivity accumulation in C6 tumors” value (C6 tumors; 3 hr after injection) was 1.37±0.24 % dose/g and the “tumor accumulation, decapitation” value (C6 tumors; 3 hr after injection, sacrificed by decapitation) was 0.85±0.18 %ID/g. The “tumor accumulation, transcardial perfusion” value (C6 tumors; 3 hr after injection, sacrificed by transcardial perfusion) was 0.96±0.18 %ID/g, the “tumor to muscle ratio” value (C6 tumors; 3 hr after probe injection) was 3.6 and the Blood (C6 tumors; 5 min) was 10.40±2.34 % injected dose per gram. The Heart (C6 tumors; 5 min) was 3.36±0.64 % injected dose per gram, the Intestine (C6 tumors; 5 min) was 2.35±0.34 % injected dose per gram and the Kidney (C6 tumors; 5 min) was 29.66±2.24 % injected dose per gram. It also gave a Liver (C6 tumors; 5 min) of 46.01±5.99 % injected dose per gram, a Lung (C6 tumors; 5 min) of 6.76±1.12 % injected dose per gram and a Muscle (C6 tumors; 5 min) of 1.05±0.33 % injected dose per gram. It also gave a Pancreas (C6 tumors; 5 min) of 2.55±0.31 % injected dose per gram, a Spleen (C6 tumors; 5 min) of 2.20± 0.44 % injected dose per gram and a Stomach (C6 tumors; 5 min) of 0.42±0.16 % injected dose per organ. For the same molecule, the Tumor (C6 tumors; 5 min) was 1.94±0.44 % injected dose per gram, the Blood (C6 tumors; 15 min) was 6.60±0.61 % injected dose per gram and the Heart (C6 tumors; 15 min) was 2.45±0.41 % injected dose per gram. The Intestine (C6 tumors; 15 min) was 5.08±0.95 % injected dose per gram, the Kidney (C6 tumors; 15 min) was 62.82±9.70 % injected dose per gram and the Liver (C6 tumors; 15 min) was 37.58±2.88 % injected dose per gram. The Lung (C6 tumors; 15 min) was 4.26±0.19 % injected dose per gram, the Muscle (C6 tumors; 15 min) was 0.74±0.15 % injected dose per gram and the Pancreas (C6 tumors; 15 min) was 1.20±0.20 % injected dose per gram. The Spleen (C6 tumors; 15 min) was 1.09±0.10 % injected dose per gram, the Stomach (C6 tumors; 15 min) was 1.02±0.38 % injected dose per organ and the Tumor (C6 tumors; 15 min) was 2.26±0.45 % injected dose per gram. The Blood (C6 tumors; 30 min) was 4.74±1.17 % injected dose per gram, the Heart (C6 tumors; 30 min) was 1.76±0.40 % injected dose per gram and the Intestine (C6 tumors; 30 min) was 7.97±1.32 % injected dose per gram. It also gave a Kidney (C6 tumors; 30 min) of 77.74±8.14 % injected dose per gram, a Liver (C6 tumors; 30 min) of 42.20±1.51 % injected dose per gram and a Lung (C6 tumors; 30 min) of 3.16±1.07 % injected dose per gram. It also gave a Muscle (C6 tumors; 30 min) of 0.57±0.12 % injected dose per gram, a Pancreas (C6 tumors; 30 min) of 0.88±0.13 % injected dose per gram and a Spleen (C6 tumors; 30 min) of 0.84±0.14 % injected dose per gram. For the same molecule, the Stomach (C6 tumors; 30 min) was 0.60±0.13 % injected dose per organ, the Tumor (C6 tumors; 30 min) was 1.63±0.38 % injected dose per gram and the Blood (C6 tumors; 60 min) was 3.25±0.66 % injected dose per gram. The Heart (C6 tumors; 60 min) was 1.12±0.17 % injected dose per gram, the Intestine (C6 tumors; 60 min) was 11.59±0.20 % injected dose per gram and the Kidney (C6 tumors; 60 min) was 71.54±8.25 % injected dose per gram. For the same molecule, the Liver (C6 tumors; 60 min) was 30.46±3.28 % injected dose per gram, the Lung (C6 tumors; 60 min) was 2.19±0.52 % injected dose per gram and the Muscle (C6 tumors; 60 min) was 0.37±0.05 % injected dose per gram. The Pancreas (C6 tumors; 60 min) was 0.63±0.08 % injected dose per gram, the Spleen (C6 tumors; 60 min) was 0.65±0.08 % injected dose per gram and the Stomach (C6 tumors; 60 min) was 0.73±0.40 % injected dose per organ. The Tumor (C6 tumors; 60 min) was 1.09±0.05 % injected dose per gram, the Blood (C6 tumors; 180 min) was 3.29±0.40 % injected dose per gram and the Heart (C6 tumors; 180 min) was 1.14±0.04 % injected dose per gram. The Intestine (C6 tumors; 180 min) was 15.76±3.03 % injected dose per gram, the Kidney (C6 tumors; 180 min) was 73.44±4.42 % injected dose per gram and the Liver (C6 tumors; 180 min) was 33.97±4.98 % injected dose per gram. It also gave a Lung (C6 tumors; 180 min) of 1.88±0.25 % injected dose per gram, a Muscle (C6 tumors; 180 min) of 0.39±0.09 % injected dose per gram and a Pancreas (C6 tumors; 180 min) of 0.70±0.13 % injected dose per gram. The Spleen (C6 tumors; 180 min) was 0.82±0.11 % injected dose per gram, the Stomach (C6 tumors; 180 min) was 0.89±0.40 % injected dose per organ and the Tumor (C6 tumors; 180 min) was 1.37±0.24 % injected dose per gram. The T/B ratio (C6 tumors; 5 min) was 0.19±0.04, the T/B ratio (C6 tumors; 15 min) was 0.34±0.06 and the T/B ratio (C6 tumors; 30 min) was 0.35±0.03. It also gave a T/B ratio (C6 tumors; 60 min) of 0.34±0.05, a T/B ratio (C6 tumors; 180 min) of 0.42±0.04 and a T/M ratio (C6 tumors; 5 min) of 1.94±0.52. The T/M ratio (C6 tumors; 15 min) was 3.08±0.10, the T/M ratio (C6 tumors; 30 min) was 2.96±0.73 and the T/M ratio (C6 tumors; 60 min) was 2.95±0.41. The T/M ratio (C6 tumors; 180 min) was 3.60±0.98, the “stability against deiodination in vivo” value ([1]; low radioactivity in stomach and thyroid gland) was “stable against deiodination” and the Blood ([1]; 5 min) was 3.25±0.20 % injected dose per gram. For the same molecule, the Heart ([1]; 5 min) was 1.59±0.54 % injected dose per gram, the Intestine ([1]; 5 min) was 2.21±1.43 % injected dose per gram and the Kidney ([1]; 5 min) was 15.30±9.93 % injected dose per gram. The Liver ([1]; 5 min) was 57.51±4.79 % injected dose per gram, the Lung ([1]; 5 min) was 3.12±1.11 % injected dose per gram and the Muscle ([1]; 5 min) was 0.73±0.51 % injected dose per gram. It also gave a Pancreas ([1]; 5 min) of 1.53±0.84 % injected dose per gram, a Spleen ([1]; 5 min) of 1.54±0.60 % injected dose per gram and a Stomach ([1]; 5 min) of 0.40±0.14 % injected dose per organ. The Thyroid gland ([1]; 5 min) was 0.01±0.005 % injected dose per organ, the Blood ([1]; 15 min) was 3.91±0.75 % injected dose per gram and the Heart ([1]; 15 min) was 1.57±0.51 % injected dose per gram. The Intestine ([1]; 15 min) was 2.21±0.72 % injected dose per gram, the Kidney ([1]; 15 min) was 32.89±11.78 % injected dose per gram and the Liver ([1]; 15 min) was 47.58±2.57 % injected dose per gram. The Lung ([1]; 15 min) was 2.88±0.65 % injected dose per gram, the Muscle ([1]; 15 min) was 0.83±0.09 % injected dose per gram and the Pancreas ([1]; 15 min) was 1.23±0.26 % injected dose per gram. For the same molecule, the Spleen ([1]; 15 min) was 1.84±0.43 % injected dose per gram, the Stomach ([1]; 15 min) was 0.76±0.14 % injected dose per organ and the Thyroid gland ([1]; 15 min) was 0.03±0.01 % injected dose per organ. For the same molecule, the Blood ([1]; 30 min) was 3.45±0.41 % injected dose per gram, the Heart ([1]; 30 min) was 1.39±0.25 % injected dose per gram and the Intestine ([1]; 30 min) was 3.83±0.07 % injected dose per gram. For the same molecule, the Kidney ([1]; 30 min) was 45.34±3.34 % injected dose per gram, the Liver ([1]; 30 min) was 50.91±7.27 % injected dose per gram and the Lung ([1]; 30 min) was 2.76±0.49 % injected dose per gram. The Muscle ([1]; 30 min) was 0.67±0.16 % injected dose per gram, the Pancreas ([1]; 30 min) was 0.89±0.12 % injected dose per gram and the Spleen ([1]; 30 min) was 1.29±0.13 % injected dose per gram. For the same molecule, the Stomach ([1]; 30 min) was 0.92±0.21 % injected dose per organ, the Thyroid gland ([1]; 30 min) was 0.03±0.01 % injected dose per organ and the Blood ([1]; 60 min) was 2.02±0.35 % injected dose per gram. For the same molecule, the Heart ([1]; 60 min) was 0.96±0.32 % injected dose per gram, the Intestine ([1]; 60 min) was 5.10±1.43 % injected dose per gram and the Kidney ([1]; 60 min) was 45.89±13.85 % injected dose per gram. It also gave a Liver ([1]; 60 min) of 46.70±4.43 % injected dose per gram, a Lung ([1]; 60 min) of 1.93±0.91 % injected dose per gram and a Muscle ([1]; 60 min) of 0.64±0.20 % injected dose per gram. For the same molecule, the Pancreas ([1]; 60 min) was 1.46±0.55 % injected dose per gram, the Spleen ([1]; 60 min) was 1.14±0.38 % injected dose per gram and the Stomach ([1]; 60 min) was 1.40±0.69 % injected dose per organ. The Thyroid gland ([1]; 60 min) was 0.02±0.08 % injected dose per organ, the Blood ([1]; 120 min) was 1.72±0.49 % injected dose per gram and the Heart ([1]; 120 min) was 1.11±0.23 % injected dose per gram. It also gave an Intestine ([1]; 120 min) of 10.58±1.93 % injected dose per gram, a Kidney ([1]; 120 min) of 50.84±18.75 % injected dose per gram and a Liver ([1]; 120 min) of 31.00±1.52 % injected dose per gram. For the same molecule, the Lung ([1]; 120 min) was 1.46±0.13 % injected dose per gram, the Muscle ([1]; 120 min) was 0.71±0.24 % injected dose per gram and the Pancreas ([1]; 120 min) was 0.64±0.1 % injected dose per gram. It also gave a Spleen ([1]; 120 min) of 1.44±1.21 % injected dose per gram, a Stomach ([1]; 120 min) of 2.02±0.70 % injected dose per organ and a Thyroid gland ([1]; 120 min) of 0.14±0.21 % injected dose per organ.
